Paper PMC5682201 (European journal of medicinal chemistry, 2017)

How the values were obtained:
Format in all cases: cell-based
HepG2 = HepG2 toxicity; conditions: Table 4
L. major Amastigotes = assay: Leishmania major amastigote assay; conditions: read-out: L. major Amastigotes EC50; Table 4; r^2 values >0.75
NIH 3T3 = NIH 3T3 toxicity; conditions: Table 4

6-(3-morpholinophenyl)-N-(1,2,4-triazin-3-yl)quinazolin-4-amine [9d]
HepG2 TC50 (HepG2): >20 µM
EC50 (L. major Amastigotes): > 15 µM
NIH 3T3 TC50 (NIH 3T3): >50 µM
